# Reference: paper PMC8448819, “The Arabidopsis MIK2 receptor elicits immunity by sensing a conserved signature from phytocytokines and microbes” (Nature Communications, 2021)
# Where “and” joins values, the source holds several entries; their conditions need not be identical. Identical values can stand only once. Like-named read-outs stand apart in the source and are kept apart here.
# Columns and labels:
# Arabidopsis WT seedlings = assay: ROS assay (luminol), WT seedlings; format: in vivo, Arabidopsis thaliana; conditions: for ROS production, total luminescence (Fig. 2h): WT seedlings; for ROS production, total luminescence (Fig. 3f): WT
# Description: (§1) ROS burst was determined by a luminol-based assay. […] Then, ddH2O was replaced by 200 µL of reaction solution containing 50 µM of luminol, and 10 µg/mL of horseradish peroxidase (Sigma-Aldrich) supplemented with or without 100 nM or 1 μM peptide. Luminescence was measured immediately after adding the solution with a luminometer (Glomax 20/20n, Promega) with a one-second interval for 15 min. The total values of ROS production were indicated as means of the relative light units (RLUs).
# [1] = tested on: Arabidopsis WT seedling roots; assay: Microscopy of root browning and root meristems, WT; format: in vivo, Arabidopsis thaliana
# mik2 mutant seedlings = assay: ROS assay (luminol), mik2 mutants; format: in vivo, Arabidopsis thaliana
# Description: as §1
# [2] = tested on: mik2-1 and mik2-2 mutant seedlings; format: in vivo, Arabidopsis thaliana; conditions: for Root length (Fig. 3d) / Root length (Fig. 3b) / Root length (Fig. 3e): individual values, one per line
# MIK2-BAK1 association = assay: Co-immunoprecipitation MIK2-BAK1; format: cell-based, Arabidopsis thaliana; conditions: co-IP
# Description: For co-IP assays in protoplasts, protoplasts were co-transfected with pHBT-35S::MIK2-HA and pHBT-35S::BAK1-FALG or pHBT-35S::SERK4-FLAG at 50 μg DNA for 500 μL protoplasts at the density of 2 × 10^5/mL for each sample and were incubated for 12 h. After treatment with 1 µM SCOOP peptides for 15 min, samples were collected by centrifugation at 200 × g for 2 min and lysed in 300 μL IP buffer (20 mM Tris-HCl, pH 7.5, 100 mM NaCl, 1 mM EDTA, 2 mM DTT, 10% [v/v] Glycerol, 0.5% [v/v] Triton X-100 and protease inhibitor cocktail from Sigma) by vortexing. After centrifugation at 10,000 × g for 10 min at 4 °C, 30 μL of supernatant was collected for input controls. The remaining supernatant was pre-incubated with protein-G-agarose beads at 4 °C for 1 h with gentle shaking at […] on a rocker. IP was carried out with α-FLAG agarose for 3 h at 4 °C. Beads were collected by 500 × g centrifugation for 2 min and washed three times with washing buffer (20 mM Tris-HCl, pH 7.5, 100 mM NaCl, 1 mM EDTA, 0.1% [v/v] Triton X-100) and once with 50 mM Tris-HCl, pH 7.5. Immunoprecipitated proteins and input proteins were analyzed by immunoblotting with α-HA (1:3000; Roche, Cat # 12013819001) or α-FLAG antibodies (1:3000; Sigma-Aldrich, Cat # A8592).
# For co-IP assays in transgenic seedlings, leaves of 4-week-old pMIK2::MIK2-GFP transgenic plants were hand-inoculated with 1 μM SCOOP10^B or SCOOP12 and were treated for 30 min, followed by total protein isolation with extraction buffer (50 mM Tris-HCl, pH 7.5, 150 mM NaCl, 1% [v/v] NP-40 and 1:200 protease inhibitor cocktail from Sigma). Co-IP was carried out the same as for co-IP with protoplasts except that GFP-Trap agarose beads (Chromotek) were used instead. Immunoprecipitated proteins and input proteins were analyzed by immunoblotting with α-GFP (1:3500; Roche, Cat # 11814460001) or α-BAK1 antibodies (1:2000)[64].
# [3] = tested on: MPK3, MPK4 and MPK6 phosphorylation, mik2-1 seedlings; assay: MAPK assay (α-pERK1/2 immunoblot), mik2-1; format: in vivo, Arabidopsis thaliana; design: dose or concentration left out as unconfirmed; conditions: mik2-1, α-pERK1/2 immunoblot
# [4] = tested on: WRKY30, WRKY33 and CYP81F2 expression, mik2 seedlings; assay: RT-qPCR of defense genes, mik2 mutants; format: in vivo, Arabidopsis thaliana
# [5] = tested on: gene expression, RLK7^ECD-MIK2^TK/rlk7 seedlings; assay: RNA-Seq, RLK7^ECD-MIK2^TK/rlk7; format: in vivo, Arabidopsis thaliana; conditions: for gene expression fold change: RLK7ECD-MIK2TK/rlk7, 1 μM PIP1 vs Ctrl, 1 h
# Description: (§2) Seedlings were then treated with or without 1 μM PIP1 or SCOOP12 for 1 or 6 h and harvested for RNA isolation. Total RNAs (5 μg) from two biological replicates were pooled for cDNA library construction. cDNA library preparation and sequencing were carried out on an Illumina HiSeq 4000 platform with 150-nucleotide pair-end reads in LC-BIO (Hangzhou, China). Total reads were mapped to the Arabidopsis genome (TAIR10; www.arabidopsis.org) with Hisat, and the read counts for every gene were generated with StringTie. The expression levels of genes were calculated by quantifying the cDNA fragments per kilobase of transcript per million fragments mapped (FPKM). Differentially expressed genes (DEGs) between different treatments were defined by fold change of read counts at 1 and 6 h compared to that at 0 h (differential expression analysis using edgeR, fold change ≥ 2 with p-value ≤ 0.01). DEGs were listed in Supplementary Data 2.
# [6] = tested on: gene expression, WT Col-0 seedlings; assay: RNA-Seq, WT Col-0; format: in vivo, Arabidopsis thaliana; conditions: for gene expression fold change: WT, 1 μM PIP1 vs Ctrl, 1 h
# Description: as §2
substance,measurement,setting,value
"PNGDIFTGPSGSGHGGGR [SCOOP10B, synthesized SCOOP peptide corresponding to the SxS motif]",potency in triggering PTI responses,"Arabidopsis WT seedlings; Ca^2+, ROS, MAPK, compared with other SCOOPs",more potent activities than others in triggering PTI responses
same,"ROS production, total luminescence (Fig. 2h)",Arabidopsis WT seedlings; repeat 1,9151950
same,"ROS production, total luminescence (Fig. 2h)",Arabidopsis WT seedlings; repeat 2,10580582
same,"ROS production, total luminescence (Fig. 2h)",Arabidopsis WT seedlings; repeat 3,7374543
same,"ROS production, total luminescence (Fig. 3f)",Arabidopsis WT seedlings; repeat 1,36200000
same,"ROS production, total luminescence (Fig. 3f)",Arabidopsis WT seedlings; repeat 2,29800000
same,"ROS production, total luminescence (Fig. 3f)",Arabidopsis WT seedlings; repeat 3,21300000
same,root browning,"[1]; WT seedlings, prolonged treatment",led to brown roots
same,root meristem distortion,"[1]; WT, 5-day-old seedlings, 1 µM, 48 h, PI staining",distorted root meristems
same,"ROS production, total luminescence (Fig. 3f)","mik2 mutant seedlings; mik2-1, repeat 1",113000
same,"ROS production, total luminescence (Fig. 3f)","mik2 mutant seedlings; mik2-1, repeat 2",107000
same,"ROS production, total luminescence (Fig. 3f)","mik2 mutant seedlings; mik2-1, repeat 3",114000
same,"ROS production, total luminescence (Fig. 3f)","mik2 mutant seedlings; mik2-2, repeat 1",119000
same,"ROS production, total luminescence (Fig. 3f)","mik2 mutant seedlings; mik2-2, repeat 2",155000
same,"ROS production, total luminescence (Fig. 3f)","mik2 mutant seedlings; mik2-2, repeat 3",128000
same,ROS production in mik2,"mik2 mutant seedlings; mik2 mutants, 100 nM SCOOPs or 1 µM FocSCOOPL",abolished in mik2 mutants
same,"root growth retardation, concentration series, mik2-1",[2]; 1 to 100 nM SCOOP10^B,completely abolished in mik2-1
same,Root length (Fig. 3d),"[2]; mik2-1, 1 nM",32.99 and 31.78 and 33.56 and 34.62 and 30.06 and 35.81 and 29.29
same,Root length (Fig. 3d),"[2]; mik2-1, 10 nM",32.32 and 29.96 and 32.75 and 34.52 and 30.66 and 29.77 and 30.84 and 33.97
same,Root length (Fig. 3d),"[2]; mik2-1, 100 nM",29.63 and 33.44 and 32.76 and 35.81 and 32.02 and 28.87 and 34.13 and 30.25
same,Root length (Fig. 3b),[2]; mik2-1,25.833 and 26.302 and 24.889 and 27.342 and 26.636 and 27.534 and 28.728 and 25.164 and 27.761
same,Root length (Fig. 3e),[2]; mik2-1,22.911 and 21.027 and 23.034 and 25.697 and 26.332 and 26.187 and 22.644 and 27.144 and 23.211 and 23.187
same,root growth inhibition in mik2,"[2]; mik2-1 and mik2-2, 10-day-old seedlings, 1 µM peptide",insensitive to the treatment of SCOOP10^B
same,Root length (Fig. 3b),[2]; mik2-2,28.386 and 27.709 and 30.155 and 29.447 and 28.883 and 28.332 and 29.63 and 28.607 and 26.83
same,Root length (Fig. 3e),[2]; mik2-2,22.343 and 22.532 and 23.158 and 21.859 and 27.286 and 27.619 and 26.253 and 24.148 and 29.659 and 25.362
same,MIK2-BAK1 association,"MIK2-BAK1 association; pMIK2::MIK2-GFP/mik2 leaves, 1 μM, 30 min",stimulated upon the treatment
same,MIK2-BAK1 association in protoplasts,"MIK2-BAK1 association; protoplasts, MIK2-HA and BAK1-FLAG, 15 min",also observed in protoplasts
same,MAPK activation in mik2,[3],abolished in mik2 mutants
same,CYP81F2 expression (Fig. 3i),"[4]; mik2-1, repeat 1",1.45
same,CYP81F2 expression (Fig. 3i),"[4]; mik2-1, repeat 2",1.97
same,CYP81F2 expression (Fig. 3i),"[4]; mik2-1, repeat 3",3.18
same,CYP81F2 expression (Fig. 3i),"[4]; mik2-1, repeat 4",1.68
same,CYP81F2 expression (Fig. 3i),"[4]; mik2-2, repeat 1",1.42
same,CYP81F2 expression (Fig. 3i),"[4]; mik2-2, repeat 2",2.13
same,CYP81F2 expression (Fig. 3i),"[4]; mik2-2, repeat 3",3.67
same,CYP81F2 expression (Fig. 3i),"[4]; mik2-2, repeat 4",5.95
same,"WRKY30, WRKY33 and CYP81F2 expression","[4]; mik2 mutants, 1 µM, 1 h, RT-qPCR",abolished in mik2 mutants
"RLASGP(OH)SPRGRGH [PIP1, secreted peptide, ligand of RLK7]",small peptide genes induced,"[5]; RLK7^ECD-MIK2^TK/rlk7, 1 µM PIP1",51 genes
same,expression of SCOOP genes,"[5]; RLK7^ECD-MIK2^TK/rlk7, 1 µM PIP1, 0, 1 and 6 h",induces the expression of SCOOP genes
same,"SCOOP, STMP and SCOOP/STMP-like genes induced","[5]; RLK7^ECD-MIK2^TK/rlk7, 1 µM PIP1, among 51 induced small peptide genes",18 genes
same,gene expression fold change,[5]; gene AT1G53080,194.45
same,gene expression fold change,[5]; gene AT5G52400,19374.61
same,gene expression fold change,[5]; gene AT5G52700,11109.32
same,overlap of MIK2 kinase domain-upregulated genes with PIP1-upregulated genes in WT,[6]; 746 out of 1205 genes of PIP1-treated RLK7^ECD-MIK2^TK/rlk7,61.9%
same,expression of SCOOP genes,[6]; WT seedlings,not in WT plants
same,gene expression fold change,[6]; gene AT1G56242,13807.76
same,gene expression fold change,[6]; gene AT1G69920,473.83
same,gene expression fold change,[6]; gene AT3G60120,45141.52
